Experimental data: patent US5821363A, “Antineoplastic use and pharmaceutical compositions containing them” (priority 1996, dated 1998)
Values after ≈ are worked out from the molar mass of the structure shown. Read-outs that look alike come from different tables or passages of the source.

Assays:
[1] = system: tubulin; settings: 20° C.; compared with taxol
[2] = system: KB-V1; assay: killing of multidrug resistant KB-V1 cells; type: cell-based; settings: for IC50: Homo sapiens
[3] = system: A2780 human ovarian carcinoma; assay: cytotoxicity in A2780 human ovarian carcinoma cells; type: cell-based
[4] = system: KB-3-1; assay: killing of drug sensitive (non-MDR) KB-3-1 cells; type: cell-based; settings: Homo sapiens
[5] = system: L1210 mouse leukemia carcinoma cells; assay: cytotoxicity / inhibition of cell proliferation in L1210 leukemia cells; type: cell-based
[6] = KB-V1 multidrug resistant cells, Table III, read-out: KB-V1 (IC50; nM)
[7] = ratio of IC50 KB-V1 to IC50 KB-3-1
[8] = A2780 human ovarian carcinoma, Table II, read-out: A2780 (IC50 μg/ml)
[9] = Homo sapiens, A2780, read-out: A2780 (IC50 μg/ml)

Which “induction of tubulin polymerization in vitro” value [1] does the source give for 7-deoxy-7β,8β-methano-taxol here?
The value was “able to induce tubulin polymerization in vitro at 20 °C in a manner very similar to taxol”.

`COCO[C@H]1C[C@H]2OC[C@@]2(OC(C)=O)[C@H]2[C@H](OC(=O)c3ccccc3)[C@]3(O)CC(OC(=O)[C@H](O)[C@@H](NC(=O)OC(C)(C)C)c4ccccc4)=C(C)[C@H]([C@@H](OC(C)=O)C(=O)[C@]12C)C3(C)C` [Compound 66, 7-(O-methoxymethyl)-13-(N-Boc-β-phenylisoserinyl)-Δ^12,13-iso-baccatin III] was tested. Which IC50 [2, 6] did it give?
The IC50 was 0.046 nM.

What about the “Ratio: KBV-1/KB-3-1” value [2, 7] of the same compound?
The value was 300.

What about the IC50 [3, 8] of the same compound?
The IC50 was 0.00026 µg/mL (≈ 0.291 nM).

For `COCO[C@H]1C[C@H]2OC[C@@]2(OC(C)=O)[C@H]2[C@H](OC(=O)c3ccccc3)[C@]3(O)CC(OC(=O)[C@H](O)[C@@H](NC(=O)NC(C)(C)C)c4ccccc4)=C(C)[C@H]([C@@H](OC(C)=O)C(=O)[C@]12C)C3(C)C` [Compound 67, 7-(O-methoxymethyl)-13-(N-t-butylaminocarbonyl-β-phenylisoserinyl)-Δ^12,13-iso-baccatin III], which IC50 [3, 9] is on record?
Its IC50 is 0.00042 µg/mL (≈ 0.47 nM).

Which IC50 [3, 9] does the source give for `CSCO[C@H]1C[C@H]2OC[C@@]2(OC(C)=O)[C@H]2[C@H](OC(=O)c3ccccc3)[C@]3(O)CC(OC(=O)[C@H](O)[C@@H](NC(=O)NC(C)(C)C)c4ccccc4)=C(C)[C@H]([C@@H](OC(C)=O)C(=O)[C@]12C)C3(C)C` [Compound 72, 7-(O-methylthiomethyl)-13-(N-t-butylaminocarbonyl-β-phenylisoserinyl)-Δ^12,13-iso-baccatin III] here?
Its IC50 is 0.0004 µg/mL (≈ 0.44 nM).

How did the IC50 [3, 8] turn out when `CO[C@H]1C[C@H]2OC[C@@]2(OC(C)=O)[C@H]2[C@H](OC(=O)c3ccccc3)[C@]3(O)CC(OC(=O)[C@H](O)[C@@H](NC(=O)NC(C)(C)C)c4ccccc4)=C(C)[C@H]([C@@H](OC(C)=O)C(=O)[C@]12C)C3(C)C` [Compound 73, 7-(O-methyl)-13-(N-t-butylaminocarbonyl-β-phenylisoserinyl)-Δ^12,13-iso-baccatin III] was run?
The IC50 was 0.00039 µg/mL (≈ 0.452 nM).

For `CC(=O)O[C@H]1C(=O)[C@@]2(C)[C@H]([C@H](OC(=O)c3ccccc3)[C@]3(O)C[C@H](OC(=O)[C@H](O)[C@@H](NC(=O)c4ccccc4)c4ccccc4)C(C)=C1C3(C)C)[C@]1(OC(C)=O)CO[C@@H]1C[C@@H]2O` [taxol, reference compound], which IC50 ([4]; KB 3-1, read-out: KB-3-1 (IC50; nM)) is on record?
Its IC50 is 1.3 nM.

And the IC50 ([2]; KB-V1, read-out: KB-V1 (IC50; nM))?
Its IC50 is 15000 nM.

And the “Ratio: KBV-1/KB-3-1” value ([2]; human, kb-v1 vs kb-3-1 cells)?
The value was 11,538.

What about the “average ratio (IC50 KB-V1/IC50 KB-3-1)” value ([2]; human, kb-v1 vs kb-3-1 cells) of the same compound?
Its value is 7,570.

And the IC90 ([5]; L1210, read-out: IC90 (90% growth inhibitory concentration))?
Its IC90 is 18 ng/mL (≈ 21.1 nM).

What about the IC50 ([5]; L1210, read-out: L1210 (IC50 μg/ml)) of the same compound?
The IC50 was 0.017 µg/mL (≈ 19.9 nM).

And the IC50 [3, 9]?
The IC50 was 0.002 to 0.003 µg/mL (≈ 2.34 to 3.51 nM).

For `CC(=O)O[C@@]12CO[C@@H]1C[C@H](O)[C@@]1(C)C(=O)[C@H](O)C3=C(C)[C@@H](OC(=O)[C@H](O)[C@@H](NC(=O)OC(C)(C)C)c4ccccc4)C[C@@](O)([C@@H](OC(=O)c4ccccc4)[C@H]21)C3(C)C` [taxotere, reference compound], which IC50 ([4]; KB-3-1 drug sensitive cells, Table III, read-out: KB-3-1 (IC50; nM)) is on record?
The IC50 was 0.25 nM.

What about the IC50 [2, 6] of the same compound?
Its IC50 is 1700 nM.

And the “Ratio: KBV-1/KB-3-1” value [2, 7]?
Its value is 7,570.

What about the “average ratio (IC50 KB-V1/IC50 KB-3-1)” value ([2]; taxol and taxotere, average) of the same compound?
The value was 7,570.

What about the IC50 ([5]; L1210 leukemia, Table I, 50% inhibition of cell proliferation vs untreated control, read-out: L1210 (IC50 μg/ml)) of the same compound?
Its IC50 is 0.004 µg/mL (≈ 4.95 nM).

What about the IC50 [3, 8] of the same compound?
The IC50 was 0.001 to 0.0016 µg/mL (≈ 1.24 to 1.98 nM).
